The structures appear in SMILES notation.

Assay [1] deals with T1, chymotrypsin-like (CT-L) activity of the 20S proteasome (Homo sapiens, UniProt P20618+P28074).
T1 construct: purchased R&D systems, Minneapolis, MN, USA
Briefly: 20S proteasome inhibition assay (Proteasome-Glo Chymotrypsin-Like). Format: biochemical. The following applies: n ≥ 3, SD <20% of the mean, read-out: IC50 toward Chymotrypsin-like (CT-L). On the procedure:
The 20S proteasome inhibition assay was performed using the Proteasome-Glo™ Chymotrypsin-Like Assay kit (Promega, Alexandria, NSW, Australia). Suc-LLVY-aminoluciferin is a substate that can be cleaved by the 20S proteasome, release the […] (aminoluciferin) and allow the luciferase reaction to produce light. Gradient concentration of tested compounds and the purified 20S proteasome enzyme (R&D systems, Minneapolis, MN, USA) were successively added into a transparent 96-well plate and mixed thoroughly. Then, 50 µL of a […] reagent was added. Gently mix contents with a plate shaker at 300 to 500 rpm for 30 s. Incubate at room temperature for an hour. The luminescence was recorded via the Tecan Spark multimode microplate.

Another assay concerns P3x63Ag8.653. Briefly: Cell proliferation analysis (MTT). It counts as cell-based, murine. The following applies: Mus musculus, 48 h, read-out: Anti-proliferative activity IC50, P3x63Ag8.653. On the procedure: (§1) All tumor cell lines in the current research were grown in a certain growth medium containing 10% FBS and 1% (v/v/v) penicillin–streptomycin–amphotericin at 37 °C in 5% CO2. Cells were seeded into 96-well plates at a density of 8 × 10^3 cells per well for tumor adherent cells and 2 × 10^4 cells per well for tumor-suspended cells in a final volume of 100 μL. After 12 h, 100 μL of various concentrations of compounds was added to each and incubated for 48 h. A 0.5% MTT solution was added per well before the intermixture was incubated for another 4 h, and formazan formed from MTT was extracted by adding […] of DMSO rocking for 15 min. Absorbance was measured at 570 nm using a Spark multimode microplate from Tecan. The IC50 values were calculated according to the inhibition ratios.

In the next assay the test system is A2780. Briefly: Cell proliferation analysis (MTT). Format: cell-based. As to conditions: Homo sapiens, 48 h, read-out: Anti-proliferative activity IC50, A2780. On the procedure:
as §1

Another assay has as its system ARP-1. Briefly: Cell proliferation analysis (MTT). Format: cell-based. As to conditions: 48 h, read-out: Anti-proliferative activity IC50, ARP-1. On the procedure: as §1
In the next assay the test system is HCT116. Nature of the assay: Cell proliferation analysis (MTT). Format: cell-based. As to conditions: Homo sapiens, HCT-116, 48 h, read-out: Anti-proliferative activity IC50, HCT116. On the procedure:
as §1

The next assay relates to HEL. Briefly: Cell proliferation analysis (MTT). It counts as cell-based. As to conditions: Homo sapiens, 48 h, read-out: Anti-proliferative activity IC50, HEL. On the procedure:
as §1

For another assay, the system named is HT-29. Briefly: Cell proliferation analysis (MTT). Format: cell-based. As to conditions: Homo sapiens, 48 h, read-out: Anti-proliferative activity IC50, HT-29. On the procedure: as §1
For the next assay, the system named is Hela. Nature of the assay: Cell proliferation analysis (MTT). Format: cell-based. The following applies: Homo sapiens, 48 h, read-out: Anti-proliferative activity IC50, Hela. On the procedure:
as §1

The next assay has as its system KG1. Nature of the assay: Cell proliferation analysis (MTT). The following applies: Homo sapiens, KG-1, 48 h, read-out: Anti-proliferative activity IC50, KG1. It counts as cell-based. On the procedure:
as §1

In a further assay the test system is MDA-MB-231. Briefly: Cell proliferation analysis (MTT). It counts as cell-based. As to conditions: Homo sapiens, 48 h, read-out: Anti-proliferative activity IC50, MDA-MB-231. On the procedure:
as §1

Another assay concerns MM.1S. Briefly: Cell proliferation analysis (MTT). It counts as cell-based. As to conditions: Homo sapiens, MM1.S, 48 h, read-out: Anti-proliferative activity IC50, MM.1S. On the procedure: as §1
The next assay deals with PC3. Nature of the assay: Cell proliferation analysis (MTT). It counts as cell-based. The following applies: Homo sapiens, PC-3, 48 h, read-out: Anti-proliferative activity IC50, PC3. On the procedure:
as §1

The next assay concerns RPMI-8266. Briefly: Cell proliferation analysis (MTT). Format: cell-based. As to conditions: RPMI8266, 48 h, read-out: Anti-proliferative activity IC50, RPMI-8266. On the procedure:
as §1

The next assay concerns SP2. Nature of the assay: Cell proliferation analysis (MTT). The following applies: 48 h, read-out: Anti-proliferative activity IC50, SP2. Format: cell-based. On the procedure:
as §1

The subject of a further assay is U251. Nature of the assay: Cell proliferation analysis (MTT). It counts as cell-based. The following applies: Homo sapiens, U-251, 48 h, read-out: Anti-proliferative activity IC50, U251. On the procedure:
as §1

The subject of the next assay is U266. Nature of the assay: Cell proliferation analysis (MTT). Format: cell-based. As to conditions: Homo sapiens, U-266, 48 h, read-out: Anti-proliferative activity IC50, U266. On the procedure:
as §1

The subject of the next assay is HEK293. Nature of the assay: Cell proliferation analysis (MTT), normal cells. The following applies: Homo sapiens, non-malignant cell line, 48 h, read-out: Anti-proliferative activity IC50, HEK293. It counts as cell-based. On the procedure:
as §1

The test system of another assay is HL-7702. Nature of the assay: Cell proliferation analysis (MTT), normal cells. Format: cell-based. The following applies: Homo sapiens, L02, non-malignant cell line, 48 h, read-out: Anti-proliferative activity IC50, HL-7702. On the procedure: as §1
Assay [2] concerns subcutaneous P3x63Ag8.653 tumor. Briefly: In vivo P3x63Ag8.653 tumor transplant model. Details: species or system mice. The following applies: 0.05 mmol/kg oral, two weeks. On the procedure:
The animal experiments were conducted under the guidelines of the “Regulations for the Administration of Affairs Concerning Experimental Animals” (revised 2017, State Council No. 676). For the P3x63Ag8.653 tumor development, male mice were subcutaneously injected with 200 μL murine P3x63Ag8.653 cells with a density of 1 × 10^7/mL. On the eighth day after injection, the transplanted mice were randomized into treatment and control groups. The tested compounds were administrated orally at the prescribed dose biweekly for two weeks. After two weeks of administration, mice were executed, and the tumor tissues were dissected and weighed. T/C was calculated according to the following formula: T/C = the mean RTV of the treated group/the mean RTV of the control group, where RTV is the relative tumor volume = Vt/V0 (Vt, the tumor volume measured at the end of treatment; V0, the tumor volume measured at the beginning of treatment).

The conditions of assay [3]: high concentrations up to 1 mM; cited from earlier work.

As to `CC(C)C[C@H](NC(=O)[C@@H](O)[C@H](N)Cc1ccccc1)C(=O)O` [Ubenimex], the half-inhibitory concentration (IC50) in assay [1] is more than 10 µM; in the assay with P3x63Ag8.653, more than 200 µM; in the assay on A2780, more than 200 µM; in the assay on ARP-1, more than 200 µM; with HCT116 it was more than 200 µM; in the assay on HEL, more than 200 µM. The IC50 in the assay on HT-29, in the assay on Hela, with KG1, in the assay on MDA-MB-231, with MM.1S and in the assay with PC3 was more than 200 µM throughout. In addition, the IC50 with RPMI-8266, with SP2, in the assay with U251, in the assay on U266, in the assay on HEK293 and with HL-7702 was more than 200 µM in each case. Also, in assay [2], the anti-tumor activity entry was “moderate anti-tumor activity”. Also, in assay [3], the anti-proliferation activity result is recorded as “not apparent”.
